PubChem BioAssay (NCI)
“And” between values parts separate entries of the source, which are not always exact repeats. Identical values can stand only once.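 Test compounds were applied to cells in 96-well plates for 48 hours at 5 doses. The concentration for 50% growth inhibition is given as GI50. At the TGI there is no net growth.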

Columns and labels:
Assay in all cases: DTP human tumour cell line panel, 48 h
[1] = system: KM12 colon
[2] = system: HT29 colon
[3] = system: A498 renal
[4] = system: SW-620 colon
[5] = system: ACHN renal
[6] = system: TK-10 renal
[7] = system: SR leukemia
[8] = system: PC-3 prostate
[9] = system: UACC-62 melanoma
[10] = system: COLO 205 colon
[11] = system: NCI-H522 lung
[12] = system: NCI-H23 lung
[13] = system: SK-MEL-5 melanoma
[14] = system: LOX IMVI melanoma
[15] = system: NCI-H460 lung
[16] = system: MDA-MB-435
[17] = system: SNB-75 CNS
[18] = system: CAKI-1 renal
[19] = system: SK-OV-3 ovarian
[20] = system: A549 NSCLC
[21] = system: SF-295 CNS
[22] = system: OVCAR-3 ovarian
[23] = system: HL-60(TB) leukemia
[24] = system: SN12C renal
[25] = system: SF-268 CNS
[26] = system: T-47D breast
[27] = system: K-562 leukemia
[28] = system: OVCAR-8 ovarian
[29] = system: UACC-257 melanoma
[30] = system: HCT-116 colon
[31] = system: RPMI-8226 leukemia
[32] = system: MDA-MB-231 breast
[33] = system: HCT-15 colon
[34] = system: MCF7 breast
[35] = system: UO-31 renal
[36] = system: M14 melanoma
[37] = system: OVCAR-5 ovarian
[38] = system: SNB-19 CNS
[39] = system: SK-MEL-28 melanoma
[40] = system: BT-549 breast
[41] = system: HOP-92 NSCLC
[42] = system: IGROV1 ovarian
[43] = system: SF-539 CNS
[44] = system: HS 578T breast
[45] = system: HCC-2998 colon
[46] = system: HOP-62 NSCLC
[47] = system: 786-0 renal
[48] = system: OVCAR-4 ovarian
[49] = system: NCI/ADR-RES ovarian
[50] = system: CCRF-CEM leukemia
[51] = system: NCI-H226 lung
[52] = system: MOLT-4 leukemia
[53] = system: EKVX NSCLC
[54] = system: DU-145 prostate
[55] = system: SK-MEL-2 melanoma
[56] = system: RXF 393 renal
[57] = system: MALME-3M melanoma

In the case of `CN1C(=O)[C@]23SSC1(C)C(=O)N2[C@H]1Nc2ccccc2C1([C@@]12c4ccccc4N[C@@H]1N1C(=O)C4(C)SS[C@]1(C(=O)N4C)[C@H]2O)[C@@H]3O` (stereo partly specified), the GI50 [1] is reported as 140 nM and 1210 nM, the TGI [1] is reported as 478 nM and 3410 nM and the GI50 [2] is reported as 27.6 nM and 187 nM. The TGI [2] was 86.5 nM and 454 nM, the GI50 [3] was 384 nM and 2330 nM and the TGI [3] was 678 nM and 3810 nM. For the same molecule, the GI50 [4] was 66.7 nM and 144 nM, the TGI [4] was 434 nM and 660 nM and the GI50 [5] was 37.1 nM and 57.7 nM. For the same molecule, the TGI [5] was 100 nM and 508 nM, the GI50 [6] was 54.5 nM and 503 nM and the TGI [6] was 128 nM and 906 nM. The GI50 [7] was 46.5 nM and 210 nM, the TGI [7] was 417 nM and 1070 nM and the GI50 [8] was 185 nM and 662 nM. For the same molecule, the TGI [8] was 720 nM and 3010 nM, the GI50 [9] was 137 nM and 420 nM and the TGI [9] was 398 nM and 1820 nM. For the same molecule, the GI50 [10] was 28.3 nM and 153 nM, the TGI [10] was 61.3 nM and 395 nM and the GI50 [11] was 28.8 nM and 179 nM. For the same molecule, the TGI [11] was 61.9 nM and 395 nM, the GI50 [12] was 37.4 nM and the TGI [12] was 101 nM. The TGI [13] was 242 nM and 2010 nM, the GI50 [14] was 30.9 nM and 165 nM and the TGI [14] was 70.8 nM and 394 nM. For the same molecule, the GI50 [15] was 129 nM and 326 nM, the TGI [15] was 1490 nM and 1140 nM and the GI50 [16] was 96.7 nM and 265 nM. For the same molecule, the TGI [16] was 413 nM and 804 nM, the GI50 [17] was 209 nM and 1960 nM and the TGI [17] was 544 nM and 3500 nM. The GI50 [18] was 48.8 nM and 154 nM, the TGI [18] was 170 nM and 396 nM and the GI50 [19] was 293 nM and 1670 nM. For the same molecule, the TGI [19] was 751 nM and 4050 nM, the TGI [20] was 1100 nM and 6850 nM and the GI50 [21] was 275 nM and 2380 nM. For the same molecule, the TGI [21] was 555 nM and 4690 nM, the GI50 [22] was 20.2 nM and 183 nM and the TGI [22] was 57.1 nM and 426 nM. The GI50 [23] was 235 nM and 254 nM, the TGI [23] was 782 nM and 1530 nM and the GI50 [24] was 107 nM and 407 nM. For the same molecule, the TGI [24] was 1170 nM and 1910 nM, the GI50 [25] was 309 nM and 1960 nM and the TGI [25] was 1260 nM and 5580 nM. For the same molecule, the GI50 [26] was 22 nM and 184 nM, the TGI [26] was 89.9 nM and 595 nM and the GI50 [27] was 39.7 nM and 84.7 nM. For the same molecule, the TGI [27] was 2880 nM and 10500 nM, the GI50 [28] was 34.8 nM and 165 nM and the TGI [28] was 75.1 nM and 359 nM. The GI50 [29] was 34.8 nM and 208 nM, the TGI [29] was 94.3 nM and 488 nM and the GI50 [30] was 55.8 nM and 97.4 nM. For the same molecule, the TGI [30] was 229 nM and 556 nM, the GI50 [31] was 53.6 nM and 257 nM and the TGI [31] was 221 nM and 882 nM. For the same molecule, the GI50 [32] was 54.9 nM and 321 nM, the TGI [32] was 184 nM and 827 nM and the GI50 [33] was 21.7 nM and 143 nM. The GI50 [34] was 10.7 nM and 45.7 nM, the TGI [34] was 223 nM and 1220 nM and the GI50 [35] was 45.2 nM and 192 nM. For the same molecule, the TGI [35] was 122 nM and 367 nM, the GI50 [36] was 48.2 nM and 175 nM and the TGI [36] was 163 nM and 451 nM. For the same molecule, the GI50 [37] was 360 nM and 1440 nM, the TGI [37] was 756 nM and 4210 nM and the GI50 [38] was 455 nM and 1330 nM. For the same molecule, the TGI [38] was 1580 nM and 4340 nM, the GI50 [39] was 33.9 nM and 187 nM and the TGI [39] was 76.6 nM and 419 nM. For the same molecule, the GI50 [40] was 218 nM and 1490 nM, the TGI [40] was 486 nM and 2970 nM and the GI50 [41] was 307 nM and 302 nM. For the same molecule, the TGI [41] was 640 nM and 674 nM, the GI50 [42] was 238 nM and 290 nM and the TGI [42] was 570 nM and 864 nM. For the same molecule, the GI50 [43] was 68.7 nM and 277 nM, the TGI [43] was 264 nM and 762 nM and the GI50 [44] was 465 nM and 1580 nM. The TGI [44] was 1730 nM and 5400 nM, the GI50 [45] was 79.1 nM and 567 nM and the TGI [45] was 297 nM and 1940 nM. The GI50 [46] was 219 nM and 1400 nM, the TGI [46] was 576 nM and 3300 nM and the GI50 [47] was 44.8 nM and 185 nM. The TGI [47] was 108 nM and 363 nM, the GI50 [48] was 30.2 nM and 164 nM and the TGI [48] was 73.1 nM and 322 nM. The GI50 [49] was 121 nM and 549 nM, the TGI [49] was 588 nM and 3740 nM and the GI50 [50] was 73.9 nM and 203 nM. The TGI [50] was 1560 nM and 2210 nM, the GI50 [51] was 290 nM and the TGI [51] was 807 nM. For the same molecule, the GI50 [52] was 65.3 nM and 214 nM, the TGI [52] was 590 nM and 1370 nM and the GI50 [53] was 64.4 nM and 606 nM. The TGI [53] was 504 nM and 3690 nM, the GI50 [54] was 46.1 nM and 299 nM and the TGI [54] was 208 nM and 1440 nM. The GI50 [55] was 265 nM and 718 nM, the TGI [55] was 540 nM and 2160 nM and the GI50 [56] was 33 nM and 170 nM. For the same molecule, the TGI [56] was 65.7 nM and 318 nM, the GI50 [57] was 22.7 nM and 50.5 nM and the TGI [57] was 53.9 nM and 184 nM.
